This note sets out measurements from publication PMC9105102, “Development and Biochemical Characterization of Self-Immolative Linker Containing GnRH-III-Drug Conjugates” (International Journal of Molecular Sciences, 2022).

Series [1] can be described thus: Solubility in acidic aqueous buffer (remark). As to conditions: compared with the ΔHis-D-Tic compounds. In kind it is physicochemical.
For series [2], the target named is T1, GnRH-R (membranes of human prostate cancer specimens) (Homo sapiens, UniProt P30968).
T1 construct: GnRH-Rs expressed on human pituitary and human prostate cancer cells; from tissue; host or cells: human prostate cancer specimens from patients (surgery); membrane homogenate
T1 sequence (P30968 1-328): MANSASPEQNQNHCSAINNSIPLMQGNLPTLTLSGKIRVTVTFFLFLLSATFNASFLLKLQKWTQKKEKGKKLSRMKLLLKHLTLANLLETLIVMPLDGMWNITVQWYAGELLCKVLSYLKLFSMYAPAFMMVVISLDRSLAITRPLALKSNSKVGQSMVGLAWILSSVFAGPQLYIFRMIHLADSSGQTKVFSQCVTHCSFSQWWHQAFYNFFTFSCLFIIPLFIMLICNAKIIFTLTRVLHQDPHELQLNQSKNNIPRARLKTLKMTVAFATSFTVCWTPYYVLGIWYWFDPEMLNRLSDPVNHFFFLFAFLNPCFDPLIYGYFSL
The series can be described thus: Radioligand competition assay, displacement of [125I]-GnRH-I-[6D-Trp] (triptorelin), human prostate cancer membranes. As to conditions: mean ± SE of two to three determinations, read-out: IC50 Prostate Cancer, competitive inhibition of [125I][6D-Trp]-GnRH-I binding. Here is the method: (§1) A ligand competition assay with [^125I]-GnRH-I-[^6D-Trp] as radioligand was performed to examine the binding affinity of the GnRH-III-drug conjugates to GnRH-Rs expressed on human pituitary and human prostate cancer cells. Human prostate cancer cells were derived from patients at the time of initial surgical treatment, while tissue samples from normal human pituitary (anterior lobe) were obtained by autopsy. All subjects were informed and gave their consent for inclusion before they participated in the study. The preparation of the cell membranes was carried out according to the literature. The chloramines-T method was used to prepare radioiodinated GnRH-I agonist triptorelin which was purified by RP-HPLC [10, 38, 39, 47]. The displacement of [^125I]-GnRH-I-[^6D-Trp] was studied in an in vitro ligand competition assay to determine the binding affinities of the non-radio-labeled GnRH-III bioconjugates to GnRH-RI [10, 11, 38, 39]. Membrane homogenates containing […] protein were incubated in duplicate or triplicate with 60–80,000 cpm [^125I]-GnRH-I-[^6D-Trp] and rising concentration (1 pM—1 µM) of nonradioactive bioconjugates as competitors in a total volume of […] binding buffer. Protein concentration was determined by the method of Bradford using a Bio-Rad protein assay kit (Bio-Rad Laboratories, Hercules, CA, USA). The LIGAND-PC computerized curve-fitting program of Munson and Rodbard was used to determine the receptor binding characteristics and IC50 values.
Background: In a radioligand displacement assay an active substance lowers the binding of a labelled ligand.

Series [3] can be described thus: Degradation of drug conjugates in presence of rat liver lysosomal homogenate (LC-MS). Type of series: in vitro ADME. The following applies: pH 5, 37 °C; for release of free Dau by lysosomal enzymes: up to 24 h; for release of free Dau by lysosomal enzymes / release of the smallest Dau-containing metabolite H-Lys(Dau-glutaryl)-OH: LC-MS. The procedure: The preparation of the rat liver lysosomal homogenate was carried out as recently reported. A Qubit Protein Assay Kit (Thermo Fischer Scientific, Waltham, MA, USA) was used to examine the concentration of the lysosomal proteins.
Initially, a stock solution of the GnRH-III-Dau conjugates in water (5 µg/µL) was prepared. For the degradation reaction, the conjugates and the lysosomal homogenate were diluted together in 0.2 M NaOAc buffer (pH 5) to a concentration of 0.25 µg/µL each. These mixtures were kept at 37 °C and at distinct time points (5 min, 1 h, 2 h, 4 h, 8 h and 24 h), 15 µL of each sample were quenched with 2 µL acetic acid and analyzed by LC-MS (System I).
The GnRH-III-PTX conjugates were dissolved in DMSO to a concentration of 10 mM. The reaction was carried out in 0.2 M NaOAc buffer (pH 5) with 10 µM conjugate and 0.025 µg/mL lysosomal homogenate. The reaction mixtures were incubated at 37 °C and aliquots of 60 μL were taken at 5 min, 1 h, 2 h, 4 h, 8 h and 24 h and quenched with 5 μL of acetic acid. The analysis of the samples was performed by LC–MS (System-II).

Series [4] relates to A2780 human ovarian cancer cells. The series can be described thus: cells. In kind it is cell-based. The following applies: A2780 cells; treatment 24 h (Dau conjugates) or 6 h (PTX compounds), viability at 72 h; mean ± SE of two to three determinations; read-out: A2780 IC50. The procedure:
(§2) For cultivation of A2780 human ovarian and Panc-1 human pancreatic cancer cells, RPMI-1640 medium with 10% FBS, L-glutamine and 1% Penicillin-Streptomycin were used. Cells were cultured in appropriate plastic flasks at 37 °C (humidified atmosphere, 5% CO2/95% air).
(§3) A set-up of 96-well plates was used to study the in vitro antiproliferative activity. Therefore, 5 × 10^3 cells in 100 µL complete medium were seeded to each well. After 24 h, complete medium was removed and cells were treated with 200 µL bioconjugate solution in serum-free medium (concentration range 0.0032–50 µM, control wells were treated with serum-free medium). Medium was taken out after 6 h treatment (PTX conjugates) or 24 h (Dau conjugates), replaced by complete medium and incubation was continued. To determine the cell viability, medium was removed after 72 h and 100 µL resazurin solution [45] (10% Tox-8 in FBS-free medium) was added to each well, followed by additional incubation of 2–3 h. A Tecan infinite 200 pro microplate reader (Tecan Group Ltd., Zürich, Switzerland) was used for fluorescence detection (λEx = 560 and λEm = 590 nm). Experiments were performed at least twice, using three parallels per concentration. The cell viability (and IC50 values) was calculated with GraphPad Prism using a nonlinear regression (sigmoidal dose-response).

The test system of series [5] is Panc-1 human pancreatic cancer cells. The series is described as follows: cells. In kind it is cell-based. The following applies: Panc-1 cells; treatment 24 h (Dau conjugates) or 6 h (PTX compounds), viability at 72 h; mean ± SE of two to three determinations; read-out: Panc-1 IC50. Here is the method:
as §2, §3

The target in series [6] is T2, GnRH-R (membranes of human pituitary) (Homo sapiens, UniProt P30968).
T2 construct: GnRH-Rs expressed on human pituitary and human prostate cancer cells; from tissue; host or cells: normal human pituitary (anterior lobe), autopsy; membrane homogenate
T2 sequence (P30968 1-328): T1 sequence (P30968 1-328)
The series is described as follows: Radioligand competition assay, displacement of [125I]-GnRH-I-[6D-Trp] (triptorelin), human pituitary membranes. Type of series: binding. Here is the method: as §1

Some results are limits rather than exact numbers.

In general, IC50 refers to the midpoint of a concentration-inhibition curve. Regarding `CCCC(=O)NCCCC[C@H](NC(=O)[C@H](Cc1c[nH]c2ccccc12)NC(=O)[C@H](Cc1c[nH]cn1)NC(=O)[C@@H]1CCC(=O)N1)C(=O)N[C@@H](Cc1c[nH]cn1)C(=O)N[C@@H](CC(=O)O)C(=O)N[C@@H](Cc1c[nH]c2ccccc12)C(=O)N[C@@H](CCCCNC(=O)CCCC(=O)N[C@H](C(=O)N[C@@H](CCCNC(N)=O)C(=O)Nc1ccc(COC(=O)N[C@H]2C[C@H](O[C@H]3C[C@](O)(C(C)=O)Cc4c(O)c5c(c(O)c43)C(=O)c3c(OC)cccc3C5=O)O[C@@H](C)[C@H]2O)cc1)C(C)C)C(=O)N1CCC[C@H]1C(=O)NCC(N)=O` [compound 10], in series [1], the “solubility in acidic aqueous buffer” value is “better solubility”. For the same compound, the IC50 worked out at 13.7 ± 1.87 nM in series [2], 11200 ± 380 nM in series [4], 85600 ± 24300 nM in series [5] and 16.1 ± 2.03 nM in series [6]. Also, the “release of free Dau by lysosomal enzymes” value in series [3] was “release of free Dau and the formation of several peptide fragments could be confirmed”.

For the compound `CCCC(=O)NCCCC[C@H](NC(=O)[C@H](Cc1c[nH]c2ccccc12)NC(=O)[C@H](Cc1c[nH]cn1)NC(=O)[C@@H]1CCC(=O)N1)C(=O)N[C@@H](Cc1c[nH]cn1)C(=O)N[C@@H](CC(=O)O)C(=O)N[C@@H](Cc1c[nH]c2ccccc12)C(=O)N[C@@H](CCCCNC(=O)CCCC(=O)N[C@H](C(=O)N[C@@H](C)C(=O)Nc1ccc(COC(=O)N[C@H]2C[C@H](O[C@H]3C[C@](O)(C(C)=O)Cc4c(O)c5c(c(O)c43)C(=O)c3c(OC)cccc3C5=O)O[C@@H](C)[C@H]2O)cc1)C(C)C)C(=O)N1CCC[C@H]1C(=O)NCC(N)=O` [compound 12], in series [1], the “solubility in acidic aqueous buffer” value was “better solubility”. In addition, the IC50 in series [2] stood at 15.5 ± 0.83 nM; in series [4], 7480 ± 660 nM; in series [5] it was 56200 ± 17300 nM; in series [6] it was 17 ± 1.04 nM. Besides, the “release of free Dau by lysosomal enzymes” value in series [3] was “release of free Dau and the formation of several peptide fragments could be confirmed”.

As to `CCCC(=O)NCCCC[C@H](NC(=O)[C@H](Cc1c[nH]c2ccccc12)NC(=O)[C@H](Cc1c[nH]cn1)NC(=O)[C@@H]1CCC(=O)N1)C(=O)N[C@@H](Cc1c[nH]cn1)C(=O)N[C@@H](CC(=O)O)C(=O)N[C@@H](Cc1c[nH]c2ccccc12)C(=O)N[C@@H](CCCCNC(=O)CCCC(=O)N[C@H](C(=O)N[C@@H](C)C(=O)Nc1ccc(COC(=O)N(C)CCN(C)C(=O)O[C@@H](C(=O)O[C@H]2C[C@@]3(O)[C@@H](OC(=O)c4ccccc4)[C@@H]4[C@]5(OC(C)=O)CO[C@@H]5C[C@H](O)[C@@]4(C)C(=O)[C@H](OC(C)=O)C(=C2C)C3(C)C)[C@@H](NC(=O)c2ccccc2)c2ccccc2)cc1)C(C)C)C(=O)N1CCC[C@H]1C(=O)NCC(N)=O` [compound 16], the IC50 turned out to be 8.47 ± 1.06 nM in series [2], 660 ± 180 nM in series [4], 4890 ± 1080 nM in series [5] and 9.86 ± 0.82 nM in series [6]. The “detection of the diamine-PTX fragment” value in series [3] (after 5 min of incubation) is listed as “could be already detected”. Besides, the “release of the free PTX” value in series [3] (within 24 h) is “could not be detected”.

Consider `CCCC(=O)NCCCC[C@H](NC(=O)[C@H](Cc1c[nH]c2ccccc12)NC(=O)[C@H](Cc1c[nH]cn1)NC(=O)[C@@H]1CCC(=O)N1)C(=O)N[C@@H](Cc1c[nH]cn1)C(=O)N[C@@H](CC(=O)O)C(=O)N[C@@H](Cc1c[nH]c2ccccc12)C(=O)N[C@@H](CCCCNC(=O)CCCC(=O)N[C@H]1C[C@H](O[C@H]2C[C@](O)(C(C)=O)Cc3c(O)c4c(c(O)c32)C(=O)c2c(OC)cccc2C4=O)O[C@@H](C)[C@H]1O)C(=O)N1CCC[C@H]1C(=O)NCC(N)=O` [compound 23], for which the IC50 in series [2] was 8.61 ± 1.08 nM; in series [4], 67900 ± 25400 nM; in series [5], greater than 100000 nM; in series [6], 9.7 ± 1.07 nM. Besides, the “release of the smallest Dau-containing metabolite H-Lys(Dau-glutaryl)-OH” value in series [3] is listed as “confirming the release”. Also, the “release of free Dau by lysosomal enzymes” value in series [3] is listed as “free Dau could not be detected”.

Take `CCCC(=O)NCCCC[C@H](NC(=O)[C@H]1Cc2ccccc2CN1C(=O)[C@@H]1CCC(=O)N1)C(=O)N[C@@H](Cc1c[nH]cn1)C(=O)N[C@@H](CC(=O)O)C(=O)N[C@@H](Cc1c[nH]c2ccccc12)C(=O)N[C@@H](CCCCNC(=O)CCCC(=O)N[C@H]1C[C@H](O[C@H]2C[C@](O)(C(C)=O)Cc3c(O)c4c(c(O)c32)C(=O)c2c(OC)cccc2C4=O)O[C@@H](C)[C@H]1O)C(=O)N1CCC[C@H]1C(=O)NCC(N)=O` [compound 24]: the IC50 in series [2] is 42.7 ± 7.04 nM; in series [4], 48140 ± 470 nM; in series [5], greater than 100000 nM; in series [6], 36.3 ± 3.17 nM. Moreover, in series [3], the “release of the smallest Dau-containing metabolite H-Lys(Dau-glutaryl)-OH” value is recorded as “confirming the release”. Further, the “release of free Dau by lysosomal enzymes” value in series [3] is listed as “free Dau could not be detected”.

As for `CCCC(=O)NCCCC[C@H](NC(=O)[C@H]1Cc2ccccc2CN1C(=O)[C@@H]1CCC(=O)N1)C(=O)N[C@@H](Cc1c[nH]cn1)C(=O)N[C@@H](CC(=O)O)C(=O)N[C@@H](Cc1c[nH]c2ccccc12)C(=O)N[C@@H](CCCCNC(=O)CCCC(=O)N(C)CCN(C)C(=O)O[C@@H](C(=O)O[C@H]1C[C@@]2(O)[C@@H](OC(=O)c3ccccc3)[C@@H]3[C@]4(OC(C)=O)CO[C@@H]4C[C@H](O)[C@@]3(C)C(=O)[C@H](OC(C)=O)C(=C1C)C2(C)C)[C@@H](NC(=O)c1ccccc1)c1ccccc1)C(=O)N1CCC[C@H]1C(=O)NCC(N)=O` [compound 26], the IC50 in series [2] is 22.2 ± 0.96 nM; in series [4], greater than 100000 nM; in series [5], greater than 100000 nM; in series [6], 23.4 ± 1.67 nM. Also, the “detection of the diamine-PTX fragment” value in series [3] (even after 24 h of incubation) is listed as “could not be detected”.
